This note sets out measurements from patent US5279956A, “Activated protein C polypeptides and anti-peptide antibodies, diagnostic methods and systems for inhibiting activated protein C” (The Scripps Research Institute, priority 1991, dated 1994).

“Also recorded” adds a separate entry of the source. No end group written: not given here.

For the assay, the system named is anti-(390-404) antibody. The assay can be described thus: Solid-phase ELISA: binding of anti-(390-404) antibody to immobilized peptides and PC. Also noted: species or system rabbit. How it is done:
To determine the immunospecificity of the rabbit antisera obtained in Example 2b, ELISA assays were performed. Briefly, 50 μl of either 50 μM peptide-(390-404) prepared in Example 1 or 10 μg/ml of PC or APC prepared in Example 2c in a buffer consisting of 0.05M sodium carbonate (Na2 CO3) and 0.02% NaN3 at pH 9.0 were admixed into the wells of microtiter plates. The plates were maintained at 37° C. for one hour to permit the antigens to become operatively affixed to the well walls. After washing the antigen-coated wells with TBS, the wells were blocked with 250 μl/well of 10% bovine serum albumin (BSA) (Sigma) in TBS for one hour at 22° C. The blocking solution was then removed and the wells were subsequently washed five times with 250 μl/well of maintenance buffer (0.05M Tris-HCl, 0.1M NaCl, 0.02% NaN3, 1 mg/ml BSA, 5 mM CaCl2, 0.01% Tween 20 at pH 7.4). Fifty μl of rabbit non-immune or specific antiserum serially diluted in maintenance buffer was then admixed to the washed wells and maintained for one hour at 37° C. to allow formation of a solid liquid phase immunoreaction products. The wells were then washed three times with maintenance buffer followed by admixture of 50 μl of 2.0 μg/ml of secondary antibody (polyclonal biotinylated goat-anti-rabbit-IgG) (Pierce Biochemicals) diluted in maintenance buffer to each well for the detection of immunoreactant products. The plates were maintained for 1 hour at 37° C. after which time the secondary antibody solution was removed. After washing the wells as described above, 50 μl of 2.0 μg/ml streptavidin-alkaline-phosphatase (Pierce Biochemicals) in maintenance buffer was admixed into each well and maintained for 30 minutes at 37° C. Detection of specific immunoreaction products was obtained by admixture of 150 μl/well of 5 mg/ml p-nitrophenylphosphate (PNPP) (Pierce Biochemicals) in 0.1M diethanolamine and 0.02% NaN3 at pH 9.6 followed by measurement of the change in absorbance at 405 nm over time using the EL312 Microplate Bio-Kinetics Reader and the KinetiCalc Software Program (Biotek Instruments, Inc., Vt.). Non-specific binding was considered as the measured absorbance in 10% BSA blocked wells which served as negative controls without the preceding coating of a specific protein or peptide. Under the described conditions, non-specific binding never exceeded more than 5% of the specific binding.
The specificity of immunoaffinity purified anti-(390-404) antibody towards peptide-(390-404) and PC was evaluated by measuring the binding in solid-phase ELISA of the antibody to immobilized peptides including -(384-398), -(390-404), -(396-410), -(404-390), and -K395A-(390-404) listed in Table 1 with their corresponding SEQ ID NO, and to PC. […]

Regarding “SGLLHNYGVYTKVSR-NH2 [peptide-(384-398), -SGLLHNYGVYTKVSR]”, where the note is “solid-phase ELISA”, the “binding of anti-(390-404) antibody to immobilized peptide or PC” value is “did not bind significantly; also recorded: did not significantly bind”. In addition, the “Anti-(390-404) (Absorbance/20 min.)” value (wells coated with 50 μM peptide or 10 μg/ml PC, 2 μg/ml anti-(390-404) antibody, mean of duplicates) is recorded as 3 Absorbance/20 min.
